According to patent US7432045B2 (priority 2003, dated 2008):
Like-named read-outs stand apart in the source and are kept apart here. Peptide text beside a SMILES is read from it.

Columns and labels:
HSV-1 KOS = assay: Plaque reduction assay; assay type: cell-based
Protocol: Cell culture and virus: The procedures for growing Vero cells and preparing high titer stocks of HSV-1 KOS as described in Grau et al., Invest. Ophthal. and Vis. Sci. 30: 2474 (1989) were utilized. Vero cells were maintained in carbonate-buffered DMEM supplemented with 5% calf serum and 5% fetal bovine serum (regular medium). For some studies, cells were switched to serum-free DMEM buffered with 25 mM HEPES (pH 7.4) and allowed to adapt to that medium for 30 min prior to experimental treatments. Vero cells were seeded into wells (0.28 cm^2) of microtiter plates either at 3.5×10^4 cells/well for use 1 day later (8×10^4 cells/well) or at 1×10^4 cells/well for use 3 days later (2×10^5 cells/well).
Plaque reduction assay: Confluent Vero cell cultures in microtiter plates were infected for 1 hour at 37° C. in 40 μL of medium. Except where indicated, peptide treatments in 40 μL of medium lasted from 1 hour before through 1 hour after infection. At the end of the adsorption period, the cultures were re-fed with 100 μL of regular medium. Plaque formation was scored 2 days later and the number of plaques scored per well was normalized to the number counted in the absence of peptide. Using an ocular micrometer, plaque size (π/2×L×S) was determined by measuring the largest plaque diameter (L) and the diameter at a 90° angle to that (S). The size of each of the first 40 scored plaques was measured except when a plaque included less than 10 rounded cells or touched the side of the well.

HSV-1 KOS virions = assay: Electron microscopy of peptide-treated virus (aggregation)
Protocol: Electron microscopy: Purified HSV-1 KOS virions (2.5×10^7 pfu/mL) according to Visalli et al., Virus Res. 29:167 (1993) were treated with 25 μM antiviral peptide SEQ ID NO:1 or the control peptide EBX (SEQ ID NO:17) in 40 μL serum-free DMEM buffered with 25 mM Hepes (pH 7.4) for 5 to 60 min at 4 or 23° C. Aliquots (10 μL) were adsorbed to pioloform poly-L-lysine-coated grids for 5 min at 23° C. Grids were rinsed with PBS, stained with 2% phosphotungstic acid (PTA) in water adjusted to pH ˜6, and air dried. Alternatively, virus was pre-adsorbed to grids and treated with peptides thereafter. A total of 4×10^9 pfu/mL of purified HSV-1 KOS in 5 μL PBS was applied to the coated grids for 5 min at 23° C., and the grids were rinsed once with serum-free DMEM buffered with 25 mM Hepes (pH 7.4) and treated with 15 μL of 5 mM EB or EBX in the same medium for 30 min at 37° C. The pH of highly concentrated solutions of antiviral peptide SEQ ID NO:1 and EBX was re-adjusted to 7.4 with NaOH prior to use. To prevent evaporation of the peptide-containing solutions, each grid was held in a Hiraoka flexible staining plate and covered with a miniature bell jar made from an 0.5 mL polypropylene micro-centrifuge tubes, small enough for the 15 μL to fill half of the bell jar facing the coated surface of the grid. The entire assembly was then incubated in a moist chamber for 30 min at 37° C. […]

HSV-1 KOS mutant hrR3 [1] = conditions: read-out: IC50 (lacZ+ cells)
hrR3 = conditions: read-out: IC50, infection in presence of peptide with peptide treated virions
in vitro = conditions: African green monkey
[2] = MTS assay, eight cell lines; conditions: Vero, HeLa, CV-1PD, TM-1, DP-9, NIKS and W12E cells
HSV-1 KOS mutant hrR3 [3] = assay: Inactivation of pre-adsorbed virus (virus inactivation); assay type: cell-based
HSV-1 KOS mutant hrR3 [4] = tested on: HSV-1 KOS mutant hrR3

For CC(C)C[C@H](NC(=O)[C@H](C)NC(=O)[C@H](CC(C)C)NC(=O)[C@H](CC(C)C)NC(=O)[C@@H](NC(=O)[C@H](C)NC(=O)[C@@H]1CCCN1C(=O)[C@H](CC(C)C)NC(=O)[C@H](CC(C)C)NC(=O)[C@H](C)NC(=O)[C@@H](NC(=O)[C@H](C)NC(=O)[C@H](C)NC(=O)[C@H](CCCCN)NC(=O)[C@H](CCCCN)NC(=O)[C@H](CCCNC(=N)N)NC(=O)[C@@H](N)CCCNC(=N)N)C(C)C)C(C)C)C(=O)N[C@@H](CC(C)C)C(=O)N[C@@H](C)C(=O)N1CCC[C@H]1C(=O)O [EB] (H-RRKKAAVALLPAVLLALLAP-OH), the “reduction of mean plaque size” value (HSV-1 KOS; 25 μM added 1 hour post-infection) was 70%, the mean plaque size (HSV-1 KOS; 25 μM added 1 hour post-infection, untreated 66,000±6200) was 6900±2600 μm^2 and the “combined mean plaque size after transient treatments” value (HSV-1 KOS; 6 and 12 μM, up to 1 hour post-infection) was 68,000±11,000 μm^2. The “fold lower concentration blocking infections compared to EBX” value (HSV-1 KOS; absence of serum, FIG. 1B) was 100 fold, the IC50 (HSV-1 KOS; absence of serum, FIG. 1B, read-out: antiviral IC50 (plaque formation)) was 0.7 µM and the “fold lower concentration blocking infections compared to EBX” value (HSV-1 KOS; presence of serum (FIG. 1A)) was 10 fold. It also gave an IC50 (HSV-1 KOS; present continuously after infection, read-out: inhibition of plaque expansion IC50) of 12 µM, an IC50 (HSV-1 KOS; present continuously starting 1 hour post-infection, read-out: plaque number IC50) of 24 µM and an IC50 (HSV-1 KOS; present during infection and 1 hour pre- and post-infection, read-out: plaque number IC50) of 5.5 µM. For the same compound, the “aggregation of virus particles” value (HSV-1 KOS virions; 25 μM peptide) was “nearly all of the particles were seen in relatively few large aggregates”, the “time of aggregate formation” value (HSV-1 KOS virions; room temperature as well as 4° C.) was < 5 min and the IC50 (HSV-1 KOS mutant hrR3 [1]; virus input 19 pfu/well) was 0.66 µM. The IC50 (HSV-1 KOS mutant hrR3 [1]; virus input 210 pfu/well) was 1.2 µM, the IC50 (HSV-1 KOS mutant hrR3 [1]; virus input 5700 pfu/well) was 11 µM and the IC50 (hrR3; cells pretreated with peptide) was 0.9 µM. For the same compound, the IC50 (hrR3; non-pretreated cells) was 1.7 µM, the IC50 (in vitro) was 68 µM and the EC50 [2] was > 100 µM.

In the case of N=C(N)NCCC[C@H](NC(=O)CN)C(=O)N[C@@H](CCCCN)C(=O)N[C@@H](CCCCN)C(=O)N[C@@H](CCCNC(=N)N)C(=O)N[C@@H](CCCNC(=N)N)C(=O)N[C@@H](CCC(N)=O)C(=O)N[C@@H](CCCNC(=N)N)C(=O)N[C@@H](CCCNC(=N)N)C(=O)N[C@@H](CCCNC(=N)N)C(=O)N[C@@H](CS)C(=O)O [TAT-C, NH2-GRKKRRQRRRC-COOH], the IC50 (HSV-1 KOS mutant hrR3 [3]; 33° C., read-out: Inactivation of Pre-Adsorbed Virus 33° C. IC50) is reported as 11 µM, the IC50 (HSV-1 KOS mutant hrR3 [3]; 33° C., read-out: Virus Inactivation IC50 (pre-adsorbed virus)) is reported as 11 µM and the IC50 (HSV-1 KOS mutant hrR3 [3]; 33° C., read-out: virus inactivation IC50) is reported as 11 µM. The IC50 (HSV-1 KOS mutant hrR3 [3]; 37° C., read-out: Inactivation of Pre-Adsorbed Virus 37° C. IC50) was 5.2 µM, the “inhibitory effect after 1 h at 32° C.” value (HSV-1 KOS mutant hrR3 [4]; 10 or 100 μM peptide) was “about 90%” and the “virus internalized after cultures were rinsed and shifted to 37° C.” value (HSV-1 KOS mutant hrR3 [4]; 10 or 100 μM peptide) was 25-33%. The “reversibility of the inhibitory effect after removal of peptide” value (HSV-1 KOS mutant hrR3 [4]; n50,51TAT-C 10 μM, TAT-C 10 or 100 μM) was “largely irreversible”.
